Measurements reported in PubChem BioAssay AID330 (DTP/NCI, 2004).
Several values for one entry are separate records, joined by “and”; a condition that tells them apart may be missing. Equal entries are not always repeated. Toxic doses and inconclusive results are not listed. The calls were made as follows: active = survival T/C of 150% or more; inactive = T/C below 125% in these data. Peptide text beside a SMILES is read from it.

System: P388 leukemia ip, CD2F1 mice, survival T/C
Assay: NCI In Vivo Anticancer Drug Screen. Data for tumor model P388 Leukemia (intraperitoneal) in CD2F1 (CDF1) mice
Conditions: endpoint: median survival time, higher = longer survival
Summary of the method: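 Mice carrying the transplanted tumor received test compound or vehicle. Survival was recorded in each group, and the value is the treated-group measurement divided by that of the vehicle-treated control group.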

[1] = dose: 12.5 mg/kg/injection, schedule: Q01DX009 (ip), vehicle: water
[2] = dose: 25.0 mg/kg/injection, schedule: Q01DX009 (ip), vehicle: water
[3] = dose: 50.0 mg/kg/injection, schedule: Q01DX009 (ip), vehicle: water
[4] = dose: 100.0 mg/kg/injection, schedule: Q01DX009 (ip), vehicle: water
[5] = dose: 200.0 mg/kg/injection, schedule: Q01DX009 (ip), vehicle: water
[6] = dose: 50.0 mg/kg/injection, schedule: Q01DX005 (ip), vehicle: saline with Tween-80
[7] = dose: 50.0 mg/kg/injection, schedule: Q01DX005 (ip), vehicle: Klucel (hydroxypropylcellulose) (HPC)
[8] = dose: 100.0 mg/kg/injection, schedule: Q01DX005 (ip), vehicle: Klucel (hydroxypropylcellulose) (HPC)
[9] = dose: 200.0 mg/kg/injection, schedule: Q01DX005 (ip), vehicle: Klucel (hydroxypropylcellulose) (HPC)
[10] = dose: 60.0 mg/kg/injection, schedule: Q01DX005 (ip), vehicle: Klucel (hydroxypropylcellulose) (HPC)
[11] = dose: 100.0 mg/kg/injection, schedule: Q01DX001 (ip), vehicle: Klucel (hydroxypropylcellulose) (HPC)
[12] = dose: 120.0 mg/kg/injection, schedule: Q01DX005 (ip), vehicle: Klucel (hydroxypropylcellulose) (HPC)
[13] = dose: 200.0 mg/kg/injection, schedule: Q01DX001 (ip), vehicle: Klucel (hydroxypropylcellulose) (HPC)
[14] = dose: 240.0 mg/kg/injection, schedule: Q01DX005 (ip), vehicle: Klucel (hydroxypropylcellulose) (HPC)
[15] = dose: 400.0 mg/kg/injection, schedule: Q01DX001 (ip), vehicle: Klucel (hydroxypropylcellulose) (HPC)
[16] = dose: 50.0 mg/kg/injection, schedule: Q01DX009 (ip), vehicle: Klucel (hydroxypropylcellulose) (HPC)
[17] = dose: 100.0 mg/kg/injection, schedule: Q01DX009 (ip), vehicle: Klucel (hydroxypropylcellulose) (HPC)
[18] = dose: 100.0 mg/kg/injection, schedule: Q04DX003 (ip), vehicle: saline with Tween-80
[19] = dose: 200.0 mg/kg/injection, schedule: Q04DX003 (ip), vehicle: saline with Tween-80

Measured: T/C

CN=C(NC)c1ccc(NC(=O)Nc2ccc(C)c(NC(=O)Nc3ccc(C(=NC)NC)cc3)c2)cc1
inactive: dose: 1.56 mg/kg/injection, schedule: Q01DX005 (ip), vehicle: saline 96 % of control | dose: 3.12 mg/kg/injection, schedule: Q01DX005 (ip), vehicle: saline 99 % of control | dose: 6.25 mg/kg/injection, schedule: Q01DX005 (ip), vehicle: saline 96 % of control | dose: 6.25 mg/kg/injection, schedule: Q01DX005 (ip), vehicle: suspension in saline 103 % of control

CCSC(SCC)C(NC(C)=O)C(O)C(O)C(O)CO (stereo not given)
inactive: [1] 114 % of control | [2] 113 % of control | [3] 107 % of control | [4] 109 % of control | [5] 106 % of control

CC12CCCC(O1)C(C)(C)O2 (stereo not given)
inactive: dose: 50.0 mg/kg/injection, schedule: Q01DX009 (ip), vehicle: saline 99 % of control | dose: 100.0 mg/kg/injection, schedule: Q01DX009 (ip), vehicle: saline 89 % of control

CNc1ccc2c(c1)C(=O)c1c(C)n(C)c3cccc-2c13
inactive: [6] 98 % of control

CCCOc1ccc2c(NCCCCCCCCNc3c4ccccc4nc4cc(OCCC)ccc34)c3ccccc3nc2c1
inactive: dose: 0.63 mg/kg/injection, schedule: Q01DX009 (ip), vehicle: other 109 % of control | dose: 7.5 mg/kg/injection, schedule: Q01DX009 (ip), vehicle: other 90 % of control
active: dose: 1.25 mg/kg/injection, schedule: Q01DX009 (ip), vehicle: lactic acid 162 % of control

O=C(OC1C2COC(O2)C(OC(=O)c2ccccc2)C1OC(=O)c1ccccc1)c1ccccc1 (stereo not given)
inactive: [7] 104 % of control | [8] 101 % of control | [9] 104 % of control

NC(=S)N/N=C/c1ccc(-c2ccccc2)cc1
inactive: dose: 12.5 mg/kg/injection, schedule: Q04DX003 (ip), vehicle: saline with Tween-80 110 % of control | dose: 25.0 mg/kg/injection, schedule: Q04DX003 (ip), vehicle: saline with Tween-80 120 % of control | dose: 50.0 mg/kg/injection, schedule: Q04DX003 (ip), vehicle: saline with Tween-80 100 % of control

O=C(O)C1NCCC1Oc1ccccc1 (stereo not given)
inactive: [7] 99 % of control | [8] 104 % of control | [9] 100 % of control

NC(=O)c1c(Cl)nc2n1CCS2
inactive: [10] 94 % of control | [11] 107 % of control | [12] 95 % of control | [13] 100 % of control | [14] 88 % of control | [15] 109 % of control

CC(=O)OC(C(Br)CBr)C(OC(C)=O)C(Br)CBr (stereo not given)
inactive: dose: 7.5 mg/kg/injection, schedule: Q01DX009 (ip), vehicle: saline 104 % of control | dose: 15.0 mg/kg/injection, schedule: Q01DX009 (ip), vehicle: saline 110 % of control | dose: 30.0 mg/kg/injection, schedule: Q01DX009 (ip), vehicle: saline 106 % of control

C1OC2C1OC1COC12 (stereo not given)
inactive: dose: 60.0 mg/kg/injection, schedule: Q01DX005 (ip), vehicle: saline 108 % of control | dose: 120.0 mg/kg/injection, schedule: Q01DX005 (ip), vehicle: saline 100 % of control | dose: 240.0 mg/kg/injection, schedule: Q01DX005 (ip), vehicle: saline 107 % of control

OCC#CCOCC(O)CCl (stereo not given)
inactive: [1] 103 % of control | [2] 108 % of control | [3] 107 % of control | [4] 98 % of control | [5] 103 % of control

CC(=C\c1ccc(Cl)c(Cl)c1)/C(C)=N/NC(N)=Nc1ccc(C)cc1
inactive: dose: 25.0 mg/kg/injection, schedule: Q04DX002 (ip), vehicle: saline with Tween-80 103 % of control | dose: 50.0 mg/kg/injection, schedule: Q04DX002 (ip), vehicle: saline with Tween-80 111 % of control

CCc1ccc2c(-c3ccccc3)c3c(-c4ccccc4)c4ccccc4c(-c4ccccc4)c3c(-c3ccccc3)c2c1
inactive: dose: 12.5 mg/kg/injection, schedule: Q01DX005 (ip), vehicle: saline with Tween-80 99 % of control | dose: 25.0 mg/kg/injection, schedule: Q01DX005 (ip), vehicle: saline with Tween-80 91 % of control | [6] 98 % of control and 88 % of control

CC(CCc1nc2ccccc2[nH]1)c1nc2ccccc2[nH]1 (stereo not given)
inactive: dose: 25.0 mg/kg/injection, schedule: Q01DX005 (ip), vehicle: Klucel (hydroxypropylcellulose) (HPC) 92 % of control | [7] 94 % of control | [8] 91 % of control | [9] 91 % of control

COc1ccc2nc3cc(Cl)ccc3c(NCCCCCCNc3c4ccc(Cl)cc4nc4ccc(OC)nc34)c2n1
inactive: [16] 93 % of control | [17] 105 % of control

CN(C)CCNc1ccc(O)c2sc3ccccc3c(=O)c12
inactive: [18] 94 % of control | [19] 90 % of control

Cc1c[n+]([O-])n(-c2ccccc2)n1
inactive: [6] 101 % of control | dose: 100.0 mg/kg/injection, schedule: Q01DX005 (ip), vehicle: saline with Tween-80 97 % of control | dose: 200.0 mg/kg/injection, schedule: Q01DX005 (ip), vehicle: saline with Tween-80 103 % of control

CCC1C(=O)OCc2c1cc1n(c2=O)CCC1 (stereo not given)
inactive: dose: 50.0 mg/kg/injection, schedule: Q01DX001 (ip), vehicle: Klucel (hydroxypropylcellulose) (HPC) 123 % of control | [11] 106 % of control | [13] 100 % of control | [15] 108 % of control

CC(N)C(=O)NC(Cc1ccc(O)cc1)C(N)=O (stereo not drawn) (H-Ala-Tyr-NH2; configuration not given here)
inactive: [7] 108 % of control | [8] 105 % of control | [9] 100 % of control

CCc1nnc2ccncn12
inactive: [18] 97 % of control | [19] 90 % of control | dose: 400.0 mg/kg/injection, schedule: Q04DX003 (ip), vehicle: saline with Tween-80 102 % of control

NCCSSc1ccc([N+](=O)[O-])cc1
inactive: dose: 12.5 mg/kg/injection, schedule: Q04DX002 (ip), vehicle: Klucel (hydroxypropylcellulose) (HPC) 95 % of control | dose: 25.0 mg/kg/injection, schedule: Q04DX002 (ip), vehicle: Klucel (hydroxypropylcellulose) (HPC) 86 % of control

Clc1nc(Cl)c2c3c(sc2n1)CCCC3
inactive: [10] 91 % of control | [12] 90 % of control | [14] 99 % of control

COc1nc(NC2OC(CO)C(O)C(O)C2O)c(Cl)c(=O)n1C (stereo not given)
inactive: dose: 60.0 mg/kg/injection, schedule: Q01DX005 (ip), vehicle: saline with Tween-80 94 % of control | dose: 120.0 mg/kg/injection, schedule: Q01DX005 (ip), vehicle: saline with Tween-80 93 % of control | dose: 240.0 mg/kg/injection, schedule: Q01DX005 (ip), vehicle: saline with Tween-80 97 % of control

CCOC(=O)NN(C(=O)OCC)C1CCN=C1C(=O)OC (stereo not given)
inactive: dose: 50.0 mg/kg/injection, schedule: Q01DX005 (ip), vehicle: saline 98 % of control | dose: 100.0 mg/kg/injection, schedule: Q01DX005 (ip), vehicle: saline 88 % of control | dose: 200.0 mg/kg/injection, schedule: Q01DX005 (ip), vehicle: saline 98 % of control

O=[N+]([O-])c1ccc(/C=N\N=C\c2ccco2)cc1
inactive: dose: 100.0 mg/kg/injection, schedule: Q01DX009 (ip), vehicle: saline with Tween-80 90 % of control | dose: 200.0 mg/kg/injection, schedule: Q01DX009 (ip), vehicle: saline with Tween-80 100 % of control | dose: 400.0 mg/kg/injection, schedule: Q01DX009 (ip), vehicle: saline with Tween-80 90 % of control

Cc1ccc(C(=O)CSCC(=O)c2ccc(C)cc2)cc1
inactive: [7] 87 % of control | [8] 86 % of control | [9] 94 % of control

COc1cc(C(=O)N/N=C/C(=O)O)cc(OC)c1OC
inactive: [7] 101 % of control | [8] 104 % of control | [9] 101 % of control

c1ccc(CNc2nc(NCc3ccccc3)c3cn[nH]c3n2)cc1
inactive: dose: 25.0 mg/kg/injection, schedule: Q01DX009 (ip), vehicle: Klucel (hydroxypropylcellulose) (HPC) 98 % of control | [16] 110 % of control | [17] 103 % of control | dose: 200.0 mg/kg/injection, schedule: Q01DX009 (ip), vehicle: Klucel (hydroxypropylcellulose) (HPC) 100 % of control

CC(=O)ON(C(C)=O)c1ccc(C(=O)OC2(C)CC(C)(C)[N+]([O-])=N2)cc1 (stereo not given) (tested in a mixture with another compound)
inactive: [1] 95 % of control | [2] 101 % of control | [3] 94 % of control | [5] 106 % of control
